Patent US20260355323A1, “CEREBLON-RECRUITING BCL-XL/BCL-2 DUAL DEGRADERS” (University of Florida Research Foundation, Incorporated, priority 2022, published 2026)

What was measured:
[1] = test system: MOLT-4 acute lymphoblastic leukemia cells; test: Cell viability, tetrazolium-based MTS assay, MOLT-4; settings: Homo sapiens, MOLT-4, 48 h; read-out: Anti-Cancer Activity EC50 (48 hr), MOLT-4
Procedure: (§1) Acute lymphoblastic leukemia cells (MOLT-4 and RS4;11) were incubated with increasing concentrations of Bcl-xL/Bcl-2 degraders for 48 h. Cell viability was measured by tetrazolium-based MTS assay.

WI-38 NC = test: Senolytic activity, cell viability (PrestoBlue HS), WI-38 NC; type: cell-based; settings: Homo sapiens, 72 h
Procedure: (§2) WI-38 and HUVEC cells were incubated with increasing concentrations of degraders for 72 h. Cell viability was measured using PrestoBlue HS cell viability reagent.

[2] = test system: RS4;11 acute lymphoblastic leukemia cells; test: Cell viability, tetrazolium-based MTS assay, RS4;11; settings: Homo sapiens, RS4;11, 48 h, read-out: Anti-Cancer Activity EC50 (48 hr), RS4
Procedure: as §1

[3] = test system: WI-38 irradiation-induced senescent cells (IR-SC); test: Senolytic activity, cell viability (PrestoBlue HS), WI-38 IR-SC; type: cell-based; settings: Homo sapiens, 72 h
Procedure: To induce senescence in WI-38 and HUVEC, cells were subjected to x-ray irradiation at 20 Gray using X-RAD 320 biological irradiator. Following between 10 to 15 days after irradiation, senescence was induced in cells, and irradiation-induced senescent cells (IR-SC) were then used for cell viability and Western blotting tests.
as §2

| Compound | EC50 [1] [nM] | EC50 [2] [nM] | EC50 (WI-38 NC) [nM] | EC50 [3] [nM] |
| --- | --- | --- | --- | --- |
| C[C@@]1(CN2CCN(C(=O)CN3CCC(CCN4CCN(c5ccc6c(c5)CN(C5CCC(=O)NC5=O)C6=O)CC4)CC3)CC2)CCC(c2ccc(Cl)cc2)=C(CN2CCN(c3ccc(C(=O)NS(=O)(=O)c4ccc(N[C@H](CCN5CCCOCC5)CSc5ccccc5)c(S(=O)(=O)C(F)(F)F)c4)cc3)CC2)C1 (stereo partly drawn) [Compound 10, N-((4-(((R)-4-(1,4-oxazepan-4-yl)-1-(phenylthio)butan-2-yl)amino)-3-((trifluoromethyl)sulfonyl)phenyl)sulfonyl)-4-(4-(((4R)-4′-chloro-4-((4-(2-(4-(2-(4-(2-(2,6-dioxopiperidin-3-yl)-1-oxoisoindolin-5-yl)piperazin-1-yl)ethyl)piperidin-1-yl)acetyl)piperazin-1-yl)methyl)-4-methyl-3,4,5,6-tetrahydro-[1,1′-biphenyl]-2-yl)methyl)piperazin-1-yl)benzamide] | < 1 | < 1 | > 10000 | 10 to 100 |
| CC1(CN2CCN(C(=O)CN3CCN(C(=O)COc4cccc5c4C(=O)N(C4CCC(=O)NC4=O)C5=O)CC3)CC2)CCC(c2ccc(Cl)cc2)=C(CN2CCN(c3ccc(C(=O)NS(=O)(=O)c4ccc(N[C@H](CCN5CCOCC5)CSc5ccccc5)c(S(=O)(=O)C(F)(F)F)c4)cc3)CC2)C1 (stereo partly drawn) [Compound 18, 4-(4-((4′-chloro-4-((4-(2-(4-(2-((2-(2,6-dioxopiperidin-3-yl)-1,3-dioxoisoindolin-4-yl)oxy)acetyl)piperazin-1-yl)acetyl)piperazin-1-yl)methyl)-4-methyl-3,4,5,6-tetrahydro-[1,1′-biphenyl]-2-yl)methyl)piperazin-1-yl)-N-((4-(((R)-4-morpholino-1-(phenylthio)butan-2-yl)amino)-3-((trifluoromethyl)sulfonyl)phenyl)sulfonyl)benzamide] | < 1 | < 1 | > 10000 | 10 to 100 |
| C[C@@]1(CN2CCN(C(=O)CCCCCN3CCN(c4ccc5c(c4)CN(C4CCC(=O)NC4=O)C5=O)CC3)CC2)CCC(c2ccc(Cl)cc2)=C(CN2CCN(c3ccc(C(=O)NS(=O)(=O)c4ccc(N[C@H](CCN5CCCOCC5)CSc5ccccc5)c(S(=O)(=O)C(F)(F)F)c4)cc3)CC2)C1 (stereo partly drawn) [Compound 3, N-((4-(((R)-4-(1,4-oxazepan-4-yl)-1-(phenylthio)butan-2-yl)amino)-3-((trifluoromethyl)sulfonyl)phenyl)sulfonyl)-4-(4-(((4R)-4′-chloro-4-((4-(6-(4-(2-(2,6-dioxopiperidin-3-yl)-1-oxoisoindolin-5-yl)piperazin-1-yl)hexanoyl)piperazin-1-yl)methyl)-4-methyl-3,4,5,6-tetrahydro-[1,1′-biphenyl]-2-yl)methyl)piperazin-1-yl)benzamide] | < 1 | < 1 | > 10000 | – |
| C[C@@]1(CN2CCC(CC#Cc3ccc4c(c3)CN(C3CCC(=O)NC3=O)C4=O)CC2)CCC(c2ccc(Cl)cc2)=C(CN2CCN(c3ccc(C(=O)NS(=O)(=O)c4ccc(N[C@H](CCN5CCCOCC5)CSc5ccccc5)c(S(=O)(=O)C(F)(F)F)c4)cc3)CC2)C1 (stereo partly drawn) [Compound 29, N-((4-(((R)-4-(1,4-oxazepan-4-yl)-1-(phenylthio)butan-2-yl)amino)-3-((trifluoromethyl)sulfonyl)phenyl)sulfonyl)-4-(4-(((4R)-4′-chloro-4-((4-(3-(2-(2,6-dioxopiperidin-3-yl)-1-oxoisoindolin-5-yl)prop-2-yn-1-yl)piperidin-1-yl)methyl)-4-methyl-3,4,5,6-tetrahydro-[1,1′-biphenyl]-2-yl)methyl)piperazin-1-yl)benzamide] | 1 to 10 | < 1 | > 10000 | – |
| C[C@@]1(CN2CCC(CCc3ccc4c(c3)CN(C3CCC(=O)NC3=O)C4=O)CC2)CCC(c2ccc(Cl)cc2)=C(CN2CCN(c3ccc(C(=O)NS(=O)(=O)c4ccc(N[C@H](CCN5CCCOCC5)CSc5ccccc5)c(S(=O)(=O)C(F)(F)F)c4)cc3)CC2)C1 (stereo partly drawn) [Compound 46, N-((4-(((R)-4-(1,4-oxazepan-4-yl)-1-(phenylthio)butan-2-yl)amino)-3-((trifluoromethyl)sulfonyl)phenyl)sulfonyl)-4-(4-(((4R)-4′-chloro-4-((4-(2-(2-(2,6-dioxopiperidin-3-yl)-1-oxoisoindolin-5-yl)ethyl)piperidin-1-yl)methyl)-4-methyl-3,4,5,6-tetrahydro-[1,1′-biphenyl]-2-yl)methyl)piperazin-1-yl)benzamide] | < 1 | < 1 | > 10000 | – |

Continued, in another order:

| EC50 [1] [nM] | EC50 [2] [nM] | Compound | EC50 (WI-38 NC) [nM] | EC50 [3] [nM] |
| --- | --- | --- | --- | --- |
| < 1 | < 1 | C[C@@]1(CN2CCC(CN3CCN(CC#Cc4ccc5c(c4)CN(C4CCC(=O)NC4=O)C5=O)CC3)CC2)CCC(c2ccc(Cl)cc2)=C(CN2CCN(c3ccc(C(=O)NS(=O)(=O)c4ccc(N[C@H](CCN5CCCOCC5)CSc5ccccc5)c(S(=O)(=O)C(F)(F)F)c4)cc3)CC2)C1 (stereo partly drawn) [Compound 13, N-((4-(((R)-4-(1,4-oxazepan-4-yl)-1-(phenylthio)butan-2-yl)amino)-3-((trifluoromethyl)sulfonyl)phenyl)sulfonyl)-4-(4-(((4R)-4′-chloro-4-((4-((4-(3-(2-(2,6-12 dioxopiperidin-3-yl)-1-oxoisoindolin-5-yl)prop-2-yn-1-yl)piperazin-1-yl)methyl)piperidin-1-yl)methyl)-4-methyl-3,4,5,6-tetrahydro-[1,1′-biphenyl]-2-yl)methyl)piperazin-1-14 yl)benzamide] | > 10000 | 1 to 10 |
| < 1 | < 1 | CC1CN(c2ccc3c(c2)CN(C2CCC(=O)NC2=O)C3=O)CC(C)N1CC1CN(C[C@]2(C)CCC(c3ccc(Cl)cc3)=C(CN3CCN(c4ccc(C(=O)NS(=O)(=O)c5ccc(N[C@H](CCN6CCCOCC6)CSc6ccccc6)c(S(=O)(=O)C(F)(F)F)c5)cc4)CC3)C2)C1 (stereo partly drawn) [Compound 129, N-((4-(((R)-4-(1,4-oxazepan-4-yl)-1-(phenylthio)butan-2-yl)amino)-3-((trifluoromethyl)sulfonyl)phenyl)sulfonyl)-4-(4-(((4R)-4′-chloro-4-((3-((4-(2-(2,6-dioxopiperidin-3-yl)-1-oxoisoindolin-5-yl)-2,6-dimethylpiperazin-1-yl)methyl)azetidin-1-yl)methyl)-4-methyl-3,4,5,6-tetrahydro-[1,1′-biphenyl]-2-yl)methyl)piperazin-1-yl)benzamide] | > 10000 | – |
| 1 to 10 | < 1 | C[C@@]1(CN2CC(CN3CCN(c4ccc5c(c4)CN(C4CCC(=O)NC4=O)C5=O)CC3)C2)CCC(c2ccc(Cl)cc2)=C(CN2CCN(c3ccc(C(=O)NS(=O)(=O)c4ccc(N[C@H](CCN5CCCOCC5)CSc5ccccc5)c(S(=O)(=O)C(F)(F)F)c4)cc3)CC2)C1 (stereo partly drawn) [Compound 24, N-((4-(((R)-4-(1,4-oxazepan-4-yl)-1-(phenylthio)butan-2-yl)amino)-3-((trifluoromethyl)sulfonyl)phenyl)sulfonyl)-4-(4-(((4R)-4′-chloro-4-((3-((4-(2-(2,6-dioxopiperidin-3-yl)-1-oxoisoindolin-5-yl)piperazin-1-yl)methyl)azetidin-1-yl)methyl)-4-methyl-3,4,5,6-tetrahydro-[1,1′-biphenyl]-2-yl)methyl)piperazin-1-yl)benzamide] | > 10000 | – |
